{"source": "ChEMBL document CHEMBL1914365", "about": "“Aminoacyl-tRNA synthetase inhibitors as potential antibiotics” (Eur J Med Chem, 2011)", "key": {"[1]": {"test_system": "Staphylococcus epidermidis", "test": "Antibacterial activity against Staphylococcus epidermidis", "format": "functional"}, "[2]": {"test": "Inhibition of Trypanosoma brucei Leucyl-tRNA synthetase"}, "Trypanosoma brucei": {"test_system": "Trypanosoma brucei", "test": "Antitrypanosomal activity against Trypanosoma brucei assessed as growth inhibition", "format": "functional, organism-based"}, "Staphylococcus aureus [3]": {"test_system": "Staphylococcus aureus", "test": "Antibacterial activity against mupirocin or oxacillin-resistant Staphylococcus aureus", "format": "functional"}, "Streptococcus pyogenes": {"test_system": "Streptococcus pyogenes", "test": "Antibacterial activity against Streptococcus pyogenes", "format": "functional"}, "[4]": {"test": "Inhibition of Staphylococcus aureus Methionyl-tRNA synthetase"}, "[5]": {"test": "Inhibition of Escherichia coli Methionyl-tRNA synthetase"}, "Staphylococcus": {"test_system": "Staphylococcus", "test": "Antibacterial activity against Staphylococcus aureus", "format": "functional"}, "Isoleucine--tRNA ligase": {"target": "Isoleucine--tRNA ligase (Escherichia coli K-12, UniProt P00956)", "sequence (P00956 whole entry)": "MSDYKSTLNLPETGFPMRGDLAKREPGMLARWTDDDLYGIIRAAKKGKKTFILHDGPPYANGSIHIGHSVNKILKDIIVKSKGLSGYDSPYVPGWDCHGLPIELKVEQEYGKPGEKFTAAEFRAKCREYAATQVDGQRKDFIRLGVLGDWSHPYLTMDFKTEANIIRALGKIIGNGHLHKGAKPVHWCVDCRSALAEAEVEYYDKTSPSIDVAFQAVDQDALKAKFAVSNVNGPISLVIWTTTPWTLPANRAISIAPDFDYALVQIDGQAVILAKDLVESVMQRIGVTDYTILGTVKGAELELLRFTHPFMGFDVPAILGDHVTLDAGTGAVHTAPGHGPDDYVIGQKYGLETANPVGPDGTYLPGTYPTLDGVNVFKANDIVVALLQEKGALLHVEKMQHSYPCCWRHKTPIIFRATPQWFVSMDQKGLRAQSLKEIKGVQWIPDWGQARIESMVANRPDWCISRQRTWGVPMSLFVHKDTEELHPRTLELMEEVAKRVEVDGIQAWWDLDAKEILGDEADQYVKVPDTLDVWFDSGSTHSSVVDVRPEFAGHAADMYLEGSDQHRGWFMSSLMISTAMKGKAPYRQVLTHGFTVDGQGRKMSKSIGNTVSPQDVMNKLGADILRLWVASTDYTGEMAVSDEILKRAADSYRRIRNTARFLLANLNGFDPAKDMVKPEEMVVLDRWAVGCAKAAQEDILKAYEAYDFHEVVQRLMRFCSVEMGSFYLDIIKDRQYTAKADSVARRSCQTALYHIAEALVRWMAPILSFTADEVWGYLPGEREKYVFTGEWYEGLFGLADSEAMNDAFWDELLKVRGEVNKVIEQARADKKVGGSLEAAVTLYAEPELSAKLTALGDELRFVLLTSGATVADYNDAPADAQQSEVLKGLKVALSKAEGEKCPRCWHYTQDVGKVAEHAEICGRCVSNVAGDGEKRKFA", "test": "Competitive inhibition of Escherichia coli Isoleucyl-tRNA synthetase"}, "Escherichia coli": {"test_system": "Escherichia coli", "test": "Antibacterial activity against Escherichia coli", "format": "functional"}, "Staphylococcus aureus [6]": {"test_system": "Staphylococcus aureus", "test": "Antibacterial activity against methicillin-resistant Staphylococcus aureus", "format": "functional"}}}
{"molecule": "CC(C)C[C@H](NC(=O)[C@H](CC(C)C)N1C[C@@H](CNC(=O)Nc2ncccn2)NC1=O)C(=O)O", "values": [{"measurement": "MIC50", "setting": "[1]", "value": 25, "unit": "µM"}]}
{"molecule": "CC(C)C[C@H](NC(=O)[C@H](CC(C)C)N1C[C@@H](CNC(=O)Nc2ccccc2)NC1=O)C(=O)O", "values": [{"measurement": "MIC50", "setting": "[1]", "value": 6.25, "unit": "µM"}]}
{"molecule": "CCOC(=O)COc1ccc2c(c1)B(O)OC2", "values": [{"measurement": "IC50", "setting": "[2]", "value": 1600, "unit": "nM"}]}
{"molecule": "CC(C)C[C@H](NC(=O)[C@H](CC(C)C)N1C[C@@H](CNS(=O)(=O)c2ccccc2)NC1=O)C(=O)O", "values": [{"measurement": "MIC50", "setting": "[1]", "value": 100, "unit": "µM"}]}
{"molecule": "CC(=O)C(C)(C)Oc1ccc2c(c1)B(O)OC2", "values": [{"measurement": "EC50", "setting": "Trypanosoma brucei", "value": 370, "unit": "nM"}]}
{"molecule": "C=C(F)c1sc(CNCCCNc2cc(=O)c3ccccc3[nH]2)c(C)c1Br", "note": "[BEDEROCIN]", "values": [{"measurement": "MIC90", "setting": "Staphylococcus aureus [3]", "value": 0.5, "unit": "µg/mL"}, {"measurement": "MIC", "setting": "Streptococcus pyogenes", "value": 0.03, "unit": "µg/mL"}, {"measurement": "Ki", "setting": "[4]", "value": 0.01, "unit": "nM"}, {"measurement": "Ki", "setting": "[5]", "value": 300, "unit": "nM"}]}
{"molecule": "O=C1OCC(NNc2ccc([N+](=O)[O-])cc2)=C1c1ccc(Br)cc1", "values": [{"measurement": "MIC50", "setting": "Staphylococcus", "value": 0.42, "unit": "µg/mL"}]}
{"molecule": "C/C(=C\\C(=O)OCCCCCCCCC(=O)O)C[C@@H]1OC[C@H](C[C@@H]2O[C@H]2[C@@H](C)[C@H](C)O)[C@@H](O)[C@H]1O", "note": "[MUPIROCIN]", "values": [{"measurement": "Ki", "setting": "Isoleucine--tRNA ligase", "value": 2.5, "unit": "nM"}, {"measurement": "MIC", "setting": "Escherichia coli", "value": 128, "unit": "µg/mL"}, {"measurement": "MIC", "setting": "Staphylococcus aureus [6]", "value": 0.25, "unit": "µg/mL"}]}
